# Test results as given in patent US20110219476A1, “GLUCURONYL TRANSFERASE AND POLYNUCLEOTIDE ENCODING THE SAME” (priority 2008, published 2011).
# Experiments:
# [1] = target: T1, flavonoid 7-O-glucuronosyltransferase VpF7GAT (Veronica persica, UniProt C0STS8); conditions: glycosyl acceptor substrate apigenin; activity of UDP-glucuronic acid made 100%
# Experimental: (§1) Standard reaction conditions are as follows. […] The mixture was reacted at 30° C. for 1 minute. The reaction was then terminated by adding 50 μl of CH3CN containing 0.5% TFA. The product was analyzed by reversed phase HPLC (LC-2010 System, Shimadzu Corporation).
# (§2) The conditions for HPLC are as follows. Develosil C30-UG-5 column (4.6 mm×150 mm, Nomura Chemical) was used with a column oven at 40° C., and the moving phase A (0.1% TFA/H2O) and the moving phase B (0.1% TFA/90% CH3CN) were used. The conditions for elution include a linear density gradient (B20%→B70%) for 15 minutes, then retention with B70% for further 1 minute and again reverting to B20%, followed by equilibration for 20 minutes. HPLC was performed at the flow of 1 ml/min. Detection was performed at 280 and 360 nm using a SPD-M10A Photodiode Array Detector (Shimadzu Corporation).
# [2] = target: T1, flavonoid 7-O-glucuronosyltransferase VpF7GAT; assay: Selectivity of VpF7GAT to glycosyl acceptor substrates (glycosyl donor: UDP-glucuronic acid); format: biochemical; conditions: for activity of VpF7GAT with the glycosyl acceptor substrate (in words, summary in the description): compared to other glycosyl acceptor substrates; for relative activity of glycosyl acceptor substrate / glucuronosyltransferase activity (in words): glycosyl donor UDP-glucuronic acid; for relative activity of glycosyl acceptor substrate: activity to apigenin made 100%, FIG. 3; for glucuronosyltransferase activity (in words): reaction conditions for this enzyme
# Experimental: as §1, §2
# T1 sequence (C0STS8 entry or part of it): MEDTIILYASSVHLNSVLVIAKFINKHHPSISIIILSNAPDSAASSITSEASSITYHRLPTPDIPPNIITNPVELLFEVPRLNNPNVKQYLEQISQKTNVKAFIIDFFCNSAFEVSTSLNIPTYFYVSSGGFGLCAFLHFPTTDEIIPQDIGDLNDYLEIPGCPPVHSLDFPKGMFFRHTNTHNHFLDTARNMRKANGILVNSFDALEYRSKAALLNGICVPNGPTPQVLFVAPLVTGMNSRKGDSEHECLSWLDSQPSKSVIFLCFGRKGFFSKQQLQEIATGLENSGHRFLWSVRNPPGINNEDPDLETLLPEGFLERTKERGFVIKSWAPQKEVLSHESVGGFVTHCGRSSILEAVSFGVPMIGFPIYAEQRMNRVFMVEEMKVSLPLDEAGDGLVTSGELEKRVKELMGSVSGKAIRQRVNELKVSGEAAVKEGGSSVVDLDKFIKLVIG
relative activity of UDP glycosyl donor [1] [%],glucuronosyltransferase activity (in words) [2],SMILES,"activity of VpF7GAT with the glycosyl acceptor substrate (in words, summary in the description) [2]",relative activity of glycosyl acceptor substrate [2] [%]
100,–,O=C(O)[C@H]1O[C@H](OP(=O)(O)OP(=O)(O)OC[C@H]2O[C@@H](n3ccc(=O)[nH]c3=O)[C@H](O)[C@@H]2O)[C@H](O)[C@@H](O)[C@@H]1O [UDP-glucuronic acid],–,–
–,–,O=c1cc(-c2ccc(O)cc2)oc2cc(O)cc(O)c12 [apigenin],strong,100
–,–,O=c1cc(-c2ccccc2)oc2cc(O)c(O)c(O)c12 [baicalein],shows an activity,13.1
–,–,COc1cc(-c2cc(=O)c3c(O)cc(O)cc3o2)ccc1O [chrysoeriol],strong,34.0
–,–,COc1ccc(-c2cc(=O)c3c(O)cc(O)cc3o2)cc1O [diosmetin],strong,12.9
–,not observed,O=c1ccc2cc(O)c(O)cc2o1 [esculetin],–,–
–,not observed,O=c1c(-c2ccc(O)cc2)coc2cc(O)cc(O)c12 [genistein],–,–
–,not observed,O=c1cc(-c2ccc(O)cc2)oc2cc(O)c([C@@H]3O[C@H](CO)[C@@H](O)[C@H](O)[C@H]3O)c(O)c12 [isovitexin],–,–
–,–,O=c1c(O)c(-c2ccc(O)cc2)oc2cc(O)cc(O)c12 [kaempferol],strong,13.3
–,–,O=C1C[C@@H](c2ccc(O)cc2)Oc2cc(O)cc(O)c21 [naringenin],strong,18.0
–,–,O=c1c(O)c(-c2ccc(O)c(O)c2)oc2cc(O)cc(O)c12 [quercetin],shows an activity,1.0
–,–,O=c1cc(-c2ccc(O)cc2)oc2cc(O)c(O)c(O)c12 [scutellarein],–,88.3
–,not observed,Oc1cc2c(cc1[C@H]1OC[C@H]3[C@@H]1CO[C@@H]3c1ccc3c(c1)OCO3)OCO2 [sesaminol],–,–

SMILES,relative activity of UDP glycosyl donor [1] [%],glucuronosyltransferase activity (in words) [2],"activity of VpF7GAT with the glycosyl acceptor substrate (in words, summary in the description) [2]",relative activity of glycosyl acceptor substrate [2] [%]
O=c1cc(-c2ccc(O)c(O)c2)oc2c([C@@H]3O[C@H](CO)[C@@H](O)[C@H](O)[C@H]3O)c(O)cc(O)c12 [orientin],–,not observed,–,–
Oc1ccc(C=Cc2cc(O)cc(O)c2)cc1 [resveratrol],–,not observed,–,–
